Like-named read-outs stand apart in the source and are kept apart here.
Legend:
Tlp3 [1] = assay type: cell-based, C. jejuni 11168-O
Protocol: (§1) The biological relevance of the binding specificities of the Tlp2,3,4 cluster was assessed by examining chemotactic responses of C. jejuni 11168-O tlp2, tlp3, and tlp4 wild-type (WT) and mutant strains using a nutrient-depleted chemotaxis assay. All ligands, with the exception of lysine and cysteine, interacted with Tlp2 and Tlp4 as attractants (Table 1), showing an ~1- to ~2-log decrease (P < 0.05) in migration toward the ligand compared to the WT strain.
(§2) Chemotaxis assays—the nutrient-depleted chemotaxis assay and the modified hard agar plug assay (tHAP)—were performed as previously described ([11], [34]). The chemotactic responses of all isogenic strains were compared to that of the C. jejuni 11168-O wild-type strain to distinguish between chemoattractants and chemorepellents. For the nutrient-depleted chemotaxis and modified hard agar plug (tHAP) assays, all differences were calculated as changes on a log10 scale. Controls were provided by using nonmotile (C. jejuni 81116 flaAB) and nonchemotactic (C. jejuni NCTC 11168 cheY) mutants ([69]) and mucin as negative and positive controls ([10]).

Tlp2 [2] = target: T1, Tlp2 (Campylobacter jejuni, UniProt Q0PBZ3); assay: biochemical; assay type: binding; settings: read-out: Tlp2 Affinity
T1 sequence (Q0PBZ3 entry or part of it): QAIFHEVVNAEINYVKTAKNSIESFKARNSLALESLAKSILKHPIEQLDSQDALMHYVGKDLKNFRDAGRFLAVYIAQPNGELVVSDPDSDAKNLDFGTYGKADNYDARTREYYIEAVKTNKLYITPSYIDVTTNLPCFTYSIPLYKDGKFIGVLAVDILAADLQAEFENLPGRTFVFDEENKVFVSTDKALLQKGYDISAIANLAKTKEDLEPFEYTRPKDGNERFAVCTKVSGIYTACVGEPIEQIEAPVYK
Protocol: (§3) His-tagged proteins (Tlp2, -3, and -4) were prepared as previously described ([11]) DNA segments encoding the periplasmic sensory domains (33 to 286 amino acids) of Tlp2 and (38 to 297 amino acids) of Tlp4 were amplified (see Table S7), ligated into pGEM-T Easy (Promega) and subcloned into pET-19b (Novagen) (see Table S6). Recombinant proteins were expressed in E. coli BL21(DE3) using 1 mM IPTG (isopropyl-β-D-thiogalactopyranoside) and purified using His-select-nickel chromatography as described previously ([8], [11]). The purity of the proteins was confirmed by SDS-PAGE and Western blot analysis with anti-His antibodies (Bio-Rad). Protein concentrations were determined using a NanoDrop spectrophotometer (Thermo Fisher).
(§4) Surface plasmon resonance (SPR) experiments were performed as described previously ([10], [11]) with the following modifications. Briefly, purified proteins were diluted to 0.15 μM in sodium acetate (pH 4.0) and immobilized onto an active flow cell of a CM5 sensor chip with a flow rate of 5 μL/min for 7 min of contact time using a standard amine coupling protocol. Immobilized protein levels for all three proteins ranged from 6028.3 to 9779.3 response units (RU) providing a minimum expected response maximum (RMax) between 20 and 50 RU for the small molecules tested. […] All ligands were prepared in PBS (pH 7.2) and serially diluted from 0.2 to 0.0125 mM. A 10-min dissociation period was allocated after the introduction of each analyte. SPR experiments were performed in single-cycle kinetics mode using the BIAcore S200 biosensor system (Cytiva) at 25°C in PBS (pH 7.2) at a flow rate of 30 μL/min. The equilibrium dissociation constant (KD) for each analyte was determined using BIAcore S200 Evaluation software with a report point 4 s after the injection stop to account for the bulk transfer of the small molecule against a large amount of immobilized protein (as shown in Fig. S5).

Tlp4 [3] = target: T2, Tlp4 (Campylobacter jejuni, UniProt Q0PBP3); assay: biochemical; assay type: binding; settings: read-out: Tlp4 Affinity
T2 sequence (Q0PBP3 entry or part of it): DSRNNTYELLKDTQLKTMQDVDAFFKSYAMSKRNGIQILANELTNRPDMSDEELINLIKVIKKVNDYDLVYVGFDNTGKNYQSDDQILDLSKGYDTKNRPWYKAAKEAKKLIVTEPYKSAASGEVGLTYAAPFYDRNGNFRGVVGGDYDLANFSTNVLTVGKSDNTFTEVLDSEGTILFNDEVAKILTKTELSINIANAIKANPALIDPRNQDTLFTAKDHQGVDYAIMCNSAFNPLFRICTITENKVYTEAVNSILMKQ
Protocol: as §3, §4

Tlp3 [4] = target: T3, Tlp3 (Campylobacter jejuni, UniProt Q0P864); assay: STD NMR spectroscopy of arginine in complex with Tlp3; assay type: binding; settings: 283K, 600.13 MHz; H3/H3′ and H5/H5′
T3 sequence (Q0P864 entry or part of it): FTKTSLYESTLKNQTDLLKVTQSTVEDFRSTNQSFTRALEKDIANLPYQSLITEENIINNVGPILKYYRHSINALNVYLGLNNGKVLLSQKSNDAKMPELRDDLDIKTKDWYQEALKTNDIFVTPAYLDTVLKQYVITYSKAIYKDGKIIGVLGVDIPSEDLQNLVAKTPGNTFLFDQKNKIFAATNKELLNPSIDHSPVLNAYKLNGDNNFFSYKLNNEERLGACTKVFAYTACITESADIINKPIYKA
Protocol: STD NMR experiments were performed as previously described in ([10]). […] A control sample was prepared in an identical manner without the addition of Tlp3. All NMR experiments were performed using 3-mm NMR tubes on a Bruker Avance 600 MHz spectrometer equipped with a 5-mm TXI probe with triple-axis gradients at 283K without sample spinning. ^1H NMR spectra were acquired with 32 scans and a 2-s relaxation delay over a spectral width of 6,000 Hz. Solvent suppression of the residual HDO peak was achieved by using a continuous low-power presaturation pulse during the relaxation delay. For all STD NMR experiments, the protein was saturated at −0.5 ppm in the aliphatic region of the spectrum and off-resonance at 33 ppm with a cascade of 40 selective Gaussian-shaped pulses of 50-ms duration (50 dB), which correlates to a strength of 190 Hz. A 100-μs delay between each soft pulse was applied, resulting in a total saturation time of ~2 s 2 K scans were acquired per sample. Data were obtained with interspersed acquisition of pseudo-two-dimensional on-resonance and off-resonance spectra in order to minimize the effects of temperature and magnet instability. On- and off-resonance spectra were processed separately, and the final STD NMR spectrum was obtained by subtracting the individual on- and off-resonance spectra, resulting in low-subtraction artifacts.

Tlp4 [5] = assay type: cell-based, C. jejuni 11168-O; settings: nutrient-depleted chemotaxis assay
Protocol: as §1, §2

Tlp2 [6] = assay type: cell-based, C. jejuni 11168-O; settings: nutrient-depleted chemotaxis assay
Protocol: as §1, §2

Tlp3^LBD D169A [7] = target: T4, Tlp3^LBD D169A (Campylobacter jejuni, UniProt Q0P864, D169A); settings: compared to WT Tlp3^LBD, P < 0.05
T4 sequence (Q0P864 41-290 D169A): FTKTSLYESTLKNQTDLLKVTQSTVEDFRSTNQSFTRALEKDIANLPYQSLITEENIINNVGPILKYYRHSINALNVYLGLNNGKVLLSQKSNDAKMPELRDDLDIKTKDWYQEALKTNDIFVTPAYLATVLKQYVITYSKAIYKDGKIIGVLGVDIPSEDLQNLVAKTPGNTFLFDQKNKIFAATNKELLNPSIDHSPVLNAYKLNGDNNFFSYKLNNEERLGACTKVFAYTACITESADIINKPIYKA

Tlp2 [8] = target: T1, Tlp2; assay type: binding; settings: yes/no binding
Protocol: (§5) Glycan (>400 monosaccharides or complex glycans) and small molecule arrays containing amino acids and salts were performed as described previously by Day et al. ([67]). Briefly, 1 μg of purified recombinant protein was complexed with anti-His antibody (Cell Signaling Technology) and rabbit anti-mouse/goat anti-rabbit Alexa 555-IgG (Thermo Scientific) at a molar ratio of 1:0.5:0.25 and then incubated on the array for […] in phosphate-buffered saline (PBS). The array slides were scanned at 488/520 nm and analyzed using InnoScan 1100 with MAPIX software. All arrays were performed in triplicate with a total of 12 data points for each glycan tested; the complete data set and MIRAGE (i.e., minimum information regarding a glycomics experiment) results are shown in Tables S3 and S8.
(§6) Table S8 - Supplementary glycan microarray document based on M IRAGE guidelines. D O I:
(§7) Classification Guidelines
(§8) 1. Sample: Glycan Binding Sample
(§9) Origin: Helicobacter pylori SS1; produced as a recombinant His - tagged protein in E.
(§10) The preparation of Tlp2,3, and 4 is explained in the Materials and Methods section:
(§11) Expression and purification of the periplasmic domain of Tlp2,3, and 4.
(§12) Sample Sample is a His Tagged protein containing only the periplasmic receptor domain of the modifications full length Tlp2,3, and 4transmembrane protein.
(§13) Please see Materials and Methods: Tlps 2/3/4 bind to a range of ligands, including […]
(§14) Proteins were complexed with mouse anti- his antibody, with secondary and tertiary AlexaFluor555 antibodies (rabbit anti-mouse, goat anti-rabbit) at a molar ratio of 4:2:1.
(§15) The protein/antibody complex was incubated on ice for 10 mins prior to placing on the Assay protocol array. Arrays were performed with 1 µg of complexed protein incubated on the array for 20 min. Arrays were then washed 3 times in Array PBS (PBS + 2mM MgCl2 + 2mM CaCl2) then dried by centrifugation for 3 min at 300 x g . Scanning was performed us ing an Innopsys InnoScan 1100AL and analyzed using Mapix (Innopsys). Yes/no binding was determined by six positive replicate spots in three replicate experiments. Positive […]
(§16) Glycan Glycans in this study are listed in Table S2 and is a published library in doi:
(§17) Glycans were prepared in one of two ways for printing:
(§18) Glycan 1. Glycans (with IDs in number/letter format; e.g. 1A, 4C, 7K) were sourced modifications commercially from Dextra Laboratories, Elicityl and Carbosythn and were made into glycoamines using the protocol published in Day et al 2009 (doi:
(§19) Glycan arrays: We only use glycan arrays as a yes/no binding tool. Due to this we look only at binding that is unambiguously above background vs lack of binding above background. Average background + 3x standard deviation of the background of 20 sets of 4 spots of DMF:DMSO only spots is applied to determine if binding observed is […]
(§20) Only spots with values equal to or greater than this value were considered as binding from data of any tested slide. These values are slide […]
(§21) Data Small molecule arrays: We only use amino acid arrays as a yes/no binding tool. Due interpretation to this we look only at binding that is unambiguously above background vs lack of binding above background. Average background + 3x standard deviation of the background of 6 spots of PBS + 2% glycerol only spots is applied to determine if […]
(§22) Only spots with values equal to or greater than this value were considered as binding from data of any tested slide. These values are slide dependent. […]

Tlp4 [9] = target: T2, Tlp4; assay type: binding; settings: yes/no binding
Protocol: as §5, §6, §7, §8, §9, §10, §11, §12, §13, §14, §15, §16, §17, §18, §19, §20, §21, §22

Tlp3 [10] = target: T3, Tlp3; assay: Glycan/small molecule arrays with Tlp3; settings: yes/no binding
Protocol: as §5, §6, §7, §8, §9, §10, §11, §12, §13, §14, §15, §16, §17, §18, §19, §20, §21, §22

Tlp3^LBD K149A [11] = target: T5, Tlp3^LBD K149A (Campylobacter jejuni, UniProt Q0P864, K149A); settings: compared to WT Tlp3^LBD, P < 0.05
T5 sequence (Q0P864 41-290 K149A): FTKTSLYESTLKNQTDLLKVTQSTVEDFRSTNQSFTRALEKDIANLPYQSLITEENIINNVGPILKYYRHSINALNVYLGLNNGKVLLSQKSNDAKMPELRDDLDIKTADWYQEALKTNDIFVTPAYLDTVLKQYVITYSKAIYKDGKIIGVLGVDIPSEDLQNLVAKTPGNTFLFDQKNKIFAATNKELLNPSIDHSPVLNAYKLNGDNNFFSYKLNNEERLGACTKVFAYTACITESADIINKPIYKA

Tlp3^LBD K149A [12] = target: T5, Tlp3^LBD K149A; assay: biochemical
Tlp3^LBD W151A [13] = target: T6, Tlp3^LBD W151A (Campylobacter jejuni, UniProt Q0P864, W151A); settings: compared to WT Tlp3^LBD, P < 0.05
T6 sequence (Q0P864 41-290 W151A): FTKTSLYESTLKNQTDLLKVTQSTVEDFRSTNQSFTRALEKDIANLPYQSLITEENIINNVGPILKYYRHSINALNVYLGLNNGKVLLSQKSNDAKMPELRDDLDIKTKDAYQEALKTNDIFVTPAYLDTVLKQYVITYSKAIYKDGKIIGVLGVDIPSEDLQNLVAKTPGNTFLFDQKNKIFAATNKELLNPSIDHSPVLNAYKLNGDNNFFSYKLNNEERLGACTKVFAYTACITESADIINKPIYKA

Tlp3^LBD D169A [14] = target: T4, Tlp3^LBD D169A; assay: biochemical
Tlp3^LBD D196A = Tlp3^LBD D196A (Campylobacter jejuni, UniProt Q0P864, D196A); assay: biochemical
Chain of Tlp3^LBD D196A (Q0P864 41-290 D196A): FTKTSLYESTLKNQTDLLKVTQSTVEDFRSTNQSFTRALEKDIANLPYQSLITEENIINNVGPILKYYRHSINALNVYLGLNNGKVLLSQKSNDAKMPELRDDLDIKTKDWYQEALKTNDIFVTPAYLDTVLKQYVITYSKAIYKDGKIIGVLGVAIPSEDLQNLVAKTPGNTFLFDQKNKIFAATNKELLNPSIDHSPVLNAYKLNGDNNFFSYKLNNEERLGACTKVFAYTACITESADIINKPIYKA

Tlp3^LBD W151A [15] = target: T6, Tlp3^LBD W151A; assay: biochemical
Tlp3 [16] = target: T3, Tlp3; assay: biochemical; assay type: binding
Protocol: as §3, with “The purity of the proteins was confirmed by SDS-PAGE and Western blot analysis with anti-His antibodies (Bio-Rad).” left out
Surface plasmon resonance (SPR) experiments were performed as described previously ([10], [11]) with the following modifications. […] All ligands were prepared in PBS (pH 7.2) and serially diluted from 0.2 to 0.0125 mM. A 10-min dissociation period was allocated after the introduction of each analyte. SPR experiments were performed in single-cycle kinetics mode using the BIAcore S200 biosensor system (Cytiva) at 25°C in PBS (pH 7.2) at a flow rate of 30 μL/min. The equilibrium dissociation constant (KD) for each analyte was determined using BIAcore S200 Evaluation software with a report point 4 s after the injection stop to account for the bulk transfer of the small molecule against a large amount of immobilized protein (as shown in Fig. S5).

Tlp3^LBD D170A = Tlp3^LBD D170A (Campylobacter jejuni, UniProt Q0P864); assay: biochemical
Chain of Tlp3^LBD D170A (Q0P864 41-290 T170A): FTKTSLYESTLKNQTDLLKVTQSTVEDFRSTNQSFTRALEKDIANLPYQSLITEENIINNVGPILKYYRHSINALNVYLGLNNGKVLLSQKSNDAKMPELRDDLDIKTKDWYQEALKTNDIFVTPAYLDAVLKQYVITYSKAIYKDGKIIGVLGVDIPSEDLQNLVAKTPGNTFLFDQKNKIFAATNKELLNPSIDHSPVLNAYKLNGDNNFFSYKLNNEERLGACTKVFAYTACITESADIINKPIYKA

[17] = tested on: C. jejuni 11168-O tlp2, tlp3, and tlp4 mutant strains; assay type: cell-based; settings: positive control
[18] = SPR KD, mean ± SD, NB = no binding

For `N=C(N)NCCC[C@H](N)C(=O)O` [Arginine], which “Tlp3 CR (chemoresponse)” value (Tlp3 [1]) is on record?
The value was “R”.

What about the Kd (Tlp2 [2]) of the same molecule?
The Kd was > 200 µM.

And the Kd (Tlp4 [3])?
Its Kd is > 200 µM.

And the “saturation transfer (STD NMR)” value (Tlp3 [4])?
The value was “Strong saturation transfer”.

`OC[C@H]1OC(O)[C@@H](O)[C@@H](O)[C@@H]1O` (some centres unmarked) [Mannose] was tested. Which “chemotactic response via Tlp4” value (Tlp4 [5]) did it give?
Its value is “attractants”.

And the “chemotactic response via Tlp2” value (Tlp2 [6])?
The value was “attractants”.

And the “Tlp3 CR (chemoresponse)” value (Tlp3 [1]; chemotaxis of mutant compared to WT strain)?
Its value is “R”.

And the “chemotactic response via Tlp3” value (Tlp3 [1]; nutrient-depleted chemotaxis assay)?
The value was “repellents”.

What about the “reduction in the affinity of Tlp3^LBD, substitution D169A” value (Tlp3^LBD D169A [7]) of the same molecule?
The value was 2 fold.

What about the Kd (Tlp2 [2]; [18]) of the same molecule?
Its Kd is 12.9 ± 1.8 µM.

And the Kd (Tlp4 [3]; [18])?
Its Kd is 7.8 ± 1 µM.

What about the “binding to Tlp2 on glycan/small molecule array” value (Tlp2 [8]) of the same molecule?
Its value is “interacted”.

What about the “binding to Tlp4 on glycan/small molecule array” value (Tlp4 [9]) of the same molecule?
Its value is “interacted”.

And the “binding to Tlp3 on glycan/small molecule array” value (Tlp3 [10])?
The value was “interacted”.

What about the “reduction in the affinity of Tlp3^LBD, substitution K149A” value (Tlp3^LBD K149A [11]) of the same molecule?
Its value is 2 fold.

With `Cc1ncc(C[n+]2csc(CCO)c2C)c(N)n1` [Thiamine] as the molecule, how does the “Tlp3 CR (chemoresponse)” value (Tlp3 [1]) read?
Its value is “R”.

And the Kd (Tlp3^LBD K149A [12])?
The Kd was 53.8 ± 6.6 µM.

And the Kd (Tlp2 [2])?
Its Kd is > 200 µM.

And the Kd (Tlp4 [3])?
The Kd was > 200 µM.

And the “reduction in the affinity/binding of Tlp3^LBD, substitution W151A” value (Tlp3^LBD W151A [13])?
Its value is 1 fold.

What about the Kd (Tlp3^LBD D169A [14]) of the same molecule?
The Kd was 62 ± 8.5 µM.

What about the Kd (Tlp3^LBD D196A) of the same molecule?
The Kd was 36.8 ± 10 µM.

And the Kd (Tlp3^LBD W151A [15])?
Its Kd is 73.3 ± 4.4 µM.

What about the Kd (Tlp3 [16]) of the same molecule?
Its Kd is 41.4 ± 5.9 µM.

What about the Kd (Tlp3^LBD D170A) of the same molecule?
Its Kd is 30.6 ± 7.2 µM.

For mucin, which “migration toward control ligand in mutants” value [17] is on record?
Its value is “not affected”.
